Experimental data: patent US20240083943A1, “VEGF-REGULATING PEPTIDES” (IDP DISCOVERY PHARMA, S.L., priority 2020, published 2024)
Positions of bridges follow the written chain, without caps; N, C: chain ends. Non-standard residues stand in square brackets, D forms with d. No end group written: not given here. formula (I), R19:CH3 = not defined here; formula (I) = not defined here

Assays:
[1] = test system: VEGF protein in ARPE-19 human retinal pigment epithelia cells; assay: VEGF ELISA of culture supernatant, CoCl2-induced hypoxia vs normoxia, ARPE-19 cells; type: cell-based; settings: for Relative VEGF (Hipoxia/Normoxia) / Relative VEGF (Hypoxia/Normoxia): peptide 20 μM; for Relative VEGF (Hipoxia/Normoxia): Table 3, untreated ratio 1.87; for Effect on VEGF expression under hypoxia conditions (in words): compared with untreated cells; for Relative VEGF (Hypoxia/Normoxia): 24 hr, 300 μM CoCl2, Table 2, untreated ratio 2.02
Procedure: (§1) MDA-MB-231 human breast cancer cell lines, HaCat immortalized human keratinocyte cell line and ARPE-19 human retinal pigment epithelia (RPE) cell line were purchased from American Type Culture Collection (ATCC, Manassas, VA, USA). Human cells were routinely authenticated using genotype profiling according to the ATCC guidelines. ARPE-19 cells were maintained in DMEM/F12 medium with HEPES supplemented with 10% fetal calf serum and antibiotics.
(§2) A fresh stock solution 0.4 M CoCl2 was prepared in water and added to the medium to obtain the concentration of 50 μM for MDA-MB-231, 200 μM for HaCaT and 300 μM for ARPE-19 cells. Cells were incubated with respective CoCl2 concentration for 24 hr to mimic hypoxic conditions.
The VEGF-content of the supernatant of culture cells was measured by a VEGF-ELISA (Abcam; ab100662; Cambridge, UK) following the manufacturer's instructions. The range of detection of the ELISA was between 8.23 pg/ml and 6,000 pg/ml. […] The same procedure was used in the presence of the peptides of the invention.
(§3) RT-PCR experiments were repeated at least 2 times. For VEGF assays, the mean±S.D of 3 determinations carried out in triplicate were calculated. Statistical significance was determined using Mann-Whitney tests for comparisons of means in a SPPS statistical software for Microsoft Windows, release 6.0 (Professional Statistic, Chicago, IL, USA). Individual comparisons were made using Student's two-tailed, unpaired t-tests. Criterion for significance was P<0.05 for all comparisons.
The objective of this study was to determine the regulation of VEGF by the peptides in hypoxia induced conditions in ARPE-19 cell lines. The VEGF protein (using ELISA kit) was calculated in untreated cells in hypoxia vs. normoxia and a threshold of activity was set. Then, cells were treated with a solution of the corresponding peptide of the invention at 20 μM dissolved in cell culture medium alone (normoxia condition) or in the presence of CoCl2 (hypoxia conditions) and the ratio of VEGF protein amount was calculated. The peptides showing a VEGFhyp/VEGFnorm ratio higher than the ratio in untreated cells were considered as inducers of VEGF protein, while peptides providing a VEGFhyp/VEGFnorm ratio lower than the ratio in untreated cells were considered as reducers of VEGF protein, as reported in table 2.

[2] = test system: VEGF protein in MDA-MB-231 human breast cancer cells; assay: VEGF ELISA of culture supernatant, CoCl2-induced hypoxia vs normoxia, MDA-MB-231 cells; type: cell-based; settings: peptide 10 μM, untreated ratio 1.72
Text: as §1
(§4) MDA-MB-231 and HaCaT were maintained in DMEM medium with glucose 4.5gr/L, glutamine and pyruvate 2 mM and supplemented with 10% fetal calf serum and antibiotics.
as §2
(§5) The VEGF-content of the supernatant of culture cells was measured by a VEGF-ELISA (Abcam; ab100662; Cambridge, UK) following the manufacturer's instructions. […]
(§6) RT-PCR experiments were repeated at least 2 times. For VEGF assays, the mean±S.D of 3 determinations carried out in triplicate were calculated. Statistical significance was determined using Mann-Whitney tests for comparisons of means in a SPPS statistical software for Microsoft Windows, release 6.0 (Professional Statistic, Chicago, IL, USA). […]

[3] = test system: VEGF protein in HaCat immortalized human keratinocyte cells; assay: VEGF ELISA of culture supernatant, CoCl2-induced hypoxia vs normoxia, HaCat cells; type: cell-based; settings: peptide 10 μM, untreated ratio 1.15
Text: as §1, §4, §2, §5, §6

[4] = test system: CD31 staining (blood vessels) in MDA-MB-231 tumours; assay: Angiogenesis reduction in vivo: CD31 immunohistochemistry of MDA-MB-231 breast tumour xenografts; settings: MDA-MB-231 xenograft in athymic mice, s.c. 2x week, vs vehicle
Procedure: MDA-MB-231 cells were inoculated (2.5×10^6 cells/animal) in 100 μl of DMEM into the mammary fat pad of athymic mice. When tumours reached a volume of 100 mm3, animals were divided in groups and treated 2× week by s.c. administration with vehicle (2% Tween-20 in 0.9% NaCl sterile, control group) and 2× week by s.c. administration with SEQ ID NO:17 (treated group). At sacrifice, tumours were collected, weighed and formalin-fixed (24 h). Formalin-fixed tumours were processed for paraffin-embedded tissue blocks, which were sent for analysis to the Dept. Bioquimica y Biologic Molecular A, Facultad de Veterinaria, Universidad de Murcia.
Hematoxylin, eosin, diaminobenzidine tetrahydrochloride and hydrogen peroxide were obtained from Merck (Madrid, Spain). The antibody mouse monoclonal anti-CD31 was obtained from Novus.
Tumours washed in PBS, fixed in 10% formalin and embedded in paraffin.
Haematoxylin and eosin (H&E) staining was performed on serial sections of paraffin embedded tissues. For immunohistochemistry, paraffin sections were deparaffinized and subjected to antigen retrieval in sodium citrate buffer (pH 6.0). Tissue endogenous peroxidase was inactivated with 5% hydrogen peroxide. Slides were blocked and incubated with primary antibodies overnight at 4 C. […] The stained slides were scanned using a SCN400F Leica scanner and images were analysed using ImageJ software.

[5] = test system: VEGF mRNA in ARPE-19 cells; assay: Real time quantitative RT-PCR of VEGF mRNA in ARPE-19 cells; type: cell-based, human; settings: for VEGF mRNA level compared to untreated cells (in words): ARPE-19, 10 μM; for Relative Copy to Control / VEGF mRNA Copy/Copy million of Actine: ARPE-19, peptide 10 μM, 24 hr; for Relative Copy to Control: control = untreated normoxia (1)
Procedure: as §2
Extraction of RNA from indicated cells was performed using the NZY total RNA isolation kit (Nzytech, Lisboa, Portugal) and cDNA prepared using the NZY First-Strand cDNA Synthesis Kit (Nzytech). Primers were designed using Primer Blast software (NCBI) and obtained from Thermo-Fisher. mRNA expression levels were evaluated by qRT-PCR (QuantStudio 5 Real-Time PCR System, Applied Biosystems, Foster City, CA, USA) using SYBR green master mix (Applied Biosystems) and normalized to […]. The following primers were used in this study: β-Actin (forward: 5″-AGAAAATCTGGCACCACACC-3″ (SEQ ID NO: 32); reverse: 5″-GGGGTGTTGAAGGTCTCAAA-3″ (SEQ ID NO: 33)); VGFA (forward: 5″-TACTGCCATCCAATCGAGAC-3″ (SEQ ID NO: 34); reverse: 5″-GCA TGG TGA TGT TGG ACT-3″ (SEQ ID NO: 35)).
as §3
The VEGF expression regulation was also determined by […] in ARPE-19 cells treated with the peptide SEQ ID NO: 17 at 10 μM for 24 hr in normoxia and hypoxia conditions.

“KASVMRLTISYLRV [SEQ ID NO: 37, 14 amino acid lineal peptide]” was tested, and the “Relative VEGF (Hipoxia/Normoxia)” value [1] was 2.02.
For “KASVMRLTISYLRVR [SEQ ID NO: 36, 15 amino acid lineal peptide disclosed in WO2006038208(A2), reference compound]”, the “Effect on VEGF expression under hypoxia conditions (in words)” value [1] was “no effect in the modulation of VEGF expression” and the “Relative VEGF (Hipoxia/Normoxia)” value [1] was 1.89.
In the case of “LDKASVMRLTISYLRVRK [SEQ ID NO: 13, lineal peptide, 18 amino acids]”, the “Effect on VEGF expression under hypoxia conditions (in words)” value [1] is reported as “increase VEGF expression under hypoxia conditions” and the “Relative VEGF (Hypoxia/Normoxia)” value [1] is reported as 2.59.
“SEQ ID NO: 14: cross-linked (stapled) peptide derived from SEQ ID NO: 1 (KA[formula (I), R19:CH3]VMRLTI[formula (I), R19:CH3]YLRVR-NH2; staple 3-10; reading uncertain; also: staple: ‑(CH2)6‑CH:CH‑(CH2)3‑)” was tested, and the “Relative VEGF (Hypoxia/Normoxia)” value [1] was 1.41.
For “SEQ ID NO: 16: cross-linked (stapled) peptide derived from SEQ ID NO: 1 (KASVM[formula (I), R19:CH3]LTISYL[formula (I), R19:CH3]VR-NH2; staple 6-13; reading uncertain; also: staple: ‑(CH2)6‑CH:CH‑(CH2)3‑)”, the “Relative VEGF (Hypoxia/Normoxia)” value [2] was 1.30, the “Relative VEGF (Hypoxia/Normoxia)” value [3] was 0.88 and the “Relative VEGF (Hypoxia/Normoxia)” value [1] was 1.01.
“SEQ ID NO: 17: cross-linked (stapled) peptide; differs from SEQ ID NO: 16 only in the C-terminal end (KASVM[formula (I), R19:CH3]LTISYL[formula (I), R19:CH3]VR-OH; staple 6-13; reading uncertain; also: staple: ‑(CH2)6‑CH:CH‑(CH2)3‑)” was tested, and the “CD31 expression in treated tumours compared with the control (immunohistochemistry)” value [4] was “statistically significant decrease of CD31 expression”, the “Relative VEGF (Hypoxia/Normoxia)” value [1] was 1.02 and the “VEGF mRNA level compared to untreated cells (in words)” value ([5]; hypoxia) was “reduced significantly the mRNA level”. For the same substance, the “VEGF mRNA level compared to untreated cells (in words)” value ([5]; normoxia) was “just a slide reduction”, the “Relative Copy to Control” value ([5]; hypoxia, untreated hypoxia 4.50) was 0.76 and the “VEGF mRNA Copy/Copy million of Actine” value ([5]; hypoxia, untreated hypoxia 152782) was 25873 Copy/Copy million of Actine. For the same substance, the “Relative Copy to Control” value ([5]; normoxia) was 0.93 and the “VEGF mRNA Copy/Copy million of Actine” value ([5]; normoxia, untreated normoxia 33918) was 31454 Copy/Copy million of Actine.
“SEQ ID NO: 19: cross-linked (stapled) peptide derived from SEQ ID NO: 1 (LDKA[formula (I), R19:CH3]VMRLTI[formula (I), R19:CH3]YLRVRK-NH2; staple 5-12; reading uncertain; also: staple: ‑(CH2)6‑CH:CH‑(CH2)3‑)” was tested, and the “Relative VEGF (Hypoxia/Normoxia)” value [1] was 1.39.
With “SEQ ID NO: 20: cross-linked (stapled) peptide derived from SEQ ID NO: 1 (LDKASV[formula (I), R19:CH3]RLTISY[formula (I), R19:CH3]RVRK-NH2; staple 7-14; reading uncertain; also: staple: ‑(CH2)6‑CH:CH‑(CH2)3‑)” the “Relative VEGF (Hypoxia/Normoxia)” value [1] was 0.99.
In the case of “SEQ ID NO: 21: cross-linked (stapled) peptide derived from SEQ ID NO: 1 (LDKASVM[formula (I), R19:CH3]LTISYL[formula (I), R19:CH3]VRK-NH2; staple 8-15; reading uncertain; also: staple: ‑(CH2)6‑CH:CH‑(CH2)3‑)”, the “Relative VEGF (Hypoxia/Normoxia)” value [1] is reported as 1.36.
For “SEQ ID NO: 29: peptide of the second aspect with linker biradical, derived from SEQ ID NO: 22 (RSRRSKE[formula (I), R19:CH3]EVFYEL[formula (I), R19:CH3]HQ-NH2; staple 8-15; reading uncertain; also: staple: ‑(CH2)6‑CH:CH‑(CH2)3‑)”, the “Relative VEGF (Hypoxia/Normoxia)” value [1] was 2.60.
For “SEQ ID NO: 30: peptide of the second aspect with linker biradical, derived from SEQ ID NO: 22 (RSRRSKESE[formula (I)]FYELAH[formula (I)]-NH2; staple 10-17; reading uncertain; also: staple: ‑(CH2)6‑CH:CH‑(CH2)3‑)”, the “Relative VEGF (Hypoxia/Normoxia)” value [1] was 2.70.
“SEQ ID NO: 31: peptide of the second aspect with linker biradical, derived from SEQ ID NO: 22 (RS[formula (I)]RSKESE[formula (I)]FYELAHQLP-NH2; staple 3-10; reading uncertain; also: staple: ‑(CH2)6‑CH:CH‑(CH2)3‑)” was tested, and the “Relative VEGF (Hypoxia/Normoxia)” value [1] was 2.64.
